Data set [1] in a line: 1H NMR titration, binding of chloride. Conditions: n-Bu4N^+ salt, CD3CN/CDCl3 (1/9, v/v), room temperature. As for the experimental part:
^1H NMR Titration methods. Titrations of 4c and 6c with anions as their tetra-n-butyl ammonium (TBA) salts were carried out by ^1H NMR (400 MHz on Bruker-400) at room temperature (298 K). 0.5 mL of receptor 4c (5.0 mM) or 6c (2.0 mM) were prepared in the rubber-cap NMR tubes. Aliquots of concentrated TBACl or TBAI solution (50 mM for the titration of 4c and 20 mM for the titration of 6c) containing the same amount of receptors were added into the receptor solution using 20 microliter pipette. An initial ^1H NMR spectrum was collected and additional spectra were obtained after each injection of TBACl or TBAI solution. All titration ^1H NMR spectra were stacked together and the chemical shifts of amide protons were then fitted to the proposed 1:1 binding model using BindFit v0.5 (http://app.supramolecular.org/bindfit/).
(§1) Anion binding with four amides, i.e., L1mer-L4mer, was studied in the mixed solvents of CD3CN/CDCl3 (1/9, v/v) by titrating an amide host with 0 to 5 equivalents of tetrabutylammonium (n-Bu4N^+) salt of the corresponding anion. The binding of chloride, bromide, iodide, and nitrate was examined with the four amides in CDCl3 containing 10% CD3CN. The titration data were collected by monitoring the changes in chemical shifts of the backbone amide protons and the inner aromatic protons with varying ratios of the anion guests. Job plots indicate that these linear oligoamides and their anion guests bind in a 1:1 stoichiometry.
(§2) The binding of anions by macrocycle 7c was examined in CH3CN/CHCl3 (6/4, v/v) and in DMSO by titrating with various equivalents of the salts of chloride, iodide. nitrate, and dihydrogen phosphate, with tetrabutylammonium (n-Bu4N^+) being the counterion ion. Following the changes in the chemical shifts of backbone amide protons and “inner” aromatic protons allowed the determination of binding constants.
^1H NMR titration methods. Titrations of c5a and c5b with anions as their tetra-n-butylammonium (TBA), tetra-ethylammonium (TEA) and tetra-methylammonium (TMA) salts were carried out by ^1H NMR (400 MHz) at 25° C. […]

The nature of data set [2]: 1H NMR titration, binding of nitrate. Conditions: n-Bu4N^+ salt, CD3CN/CDCl3 (1/9, v/v), room temperature.
From the text: as §1, §2
^1H NMR titration methods. Titrations of c5a and c5b with anions as their tetra-n-butylammonium (TBA), tetra-ethylammonium (TEA) and tetra-methylammonium (TMA) salts were carried out by ^1H NMR (400 MHz) at 25° C. 0.4 mL of corresponding hosts solutions were prepared in the rubber-cap NMR tubes. Aliquots of concentrated guest solution containing hosts were added into the NMR tubes using 20 microliter pipette. An initial ^1H NMR spectrum was collected and additional spectra were obtained after each injection of guest solution. All titration ^1H NMR spectra were stacked together and the chemical shifts of the internal aromatic CH proton were then fitted to 1:1 binding model using BindFit v0.5 (http://app.supramolecular.org/bindfit/) to evaluate binding constants to anions.

For data set [3] the following is noted: pH 8.3, in water; cited from earlier work.
The next data set can be described thus: Solubility. It is filed as physicochemical.

For the compound `CCCCCCCCCC(=O)Nc1ccc(NC(=O)C(C)(C)COCCCCCCCC)c(C(=O)Nc2ccc(NC(=O)C(C)(C)COCCCCCCCC)c(C(=O)Nc3ccc(NC(=O)C(C)(C)COCCCCCCCC)c(C(=O)Nc4ccc(NC(=O)C(C)(C)COCCCCCCCC)c(C(=O)NCCCCCC)c4)c3)c2)c1` [Compound L4mer], in data set [1], the Ka of chloride entry is listed as “over 1,000 M^−1”. The Ka of nitrate in data set [2] was approximately 10000 M⁻¹. Consider `CCCCCCCCCC(=O)Nc1ccc(NC(=O)C(C)(C)COCCCCCCCC)c(C(=O)NCCCCCC)c1` [Compound L1mer], for which the Ka of chloride in data set [1] turned out to be 39 M⁻¹. As for “SBP: sulfate-binding protein (SBP) from the gram-negative bacterium S. typhimurium”, the “Ka for the sulfate ion” value in data set [3] was 8.3e+06 M⁻¹. Regarding `COCCOCCOCCOCC(C)(C)C(=O)Nc1ccc2cc1C(=O)Nc1ccc(NC(=O)C(C)(C)COCCOCCOCCOC)c(c1)C(=O)Nc1ccc(NC(=O)C(C)(C)COCCOCCOCCOC)c(c1)C(=O)Nc1ccc(NC(=O)C(C)(C)COCCOCCOCCOC)c(c1)C(=O)Nc1ccc(NC(=O)C(C)(C)COCCOCCOCCOC)c(c1)C(=O)N2` [c5b], the “solubility in organic solvents” value in “Solubility” (variety of / many organic solvents) is on record as “soluble”. Besides, the solubility in water in the data set “Solubility” (water) is listed as ~ 1 mM.

The values above are taken from patent US20260272879A1, “ANION-BINDING AROMATIC OLIGOAMIDE MACROCYCLES AND METHODS OF MAKING AND USING SAME” (The Research Foundation for The State University of New York, priority 2023, published 2026).
